For experiment [1], the target named is T1, Discoidin domain-containing receptor 2 (Homo sapiens) (UniProt Q16832).
T1 sequence (whole entry): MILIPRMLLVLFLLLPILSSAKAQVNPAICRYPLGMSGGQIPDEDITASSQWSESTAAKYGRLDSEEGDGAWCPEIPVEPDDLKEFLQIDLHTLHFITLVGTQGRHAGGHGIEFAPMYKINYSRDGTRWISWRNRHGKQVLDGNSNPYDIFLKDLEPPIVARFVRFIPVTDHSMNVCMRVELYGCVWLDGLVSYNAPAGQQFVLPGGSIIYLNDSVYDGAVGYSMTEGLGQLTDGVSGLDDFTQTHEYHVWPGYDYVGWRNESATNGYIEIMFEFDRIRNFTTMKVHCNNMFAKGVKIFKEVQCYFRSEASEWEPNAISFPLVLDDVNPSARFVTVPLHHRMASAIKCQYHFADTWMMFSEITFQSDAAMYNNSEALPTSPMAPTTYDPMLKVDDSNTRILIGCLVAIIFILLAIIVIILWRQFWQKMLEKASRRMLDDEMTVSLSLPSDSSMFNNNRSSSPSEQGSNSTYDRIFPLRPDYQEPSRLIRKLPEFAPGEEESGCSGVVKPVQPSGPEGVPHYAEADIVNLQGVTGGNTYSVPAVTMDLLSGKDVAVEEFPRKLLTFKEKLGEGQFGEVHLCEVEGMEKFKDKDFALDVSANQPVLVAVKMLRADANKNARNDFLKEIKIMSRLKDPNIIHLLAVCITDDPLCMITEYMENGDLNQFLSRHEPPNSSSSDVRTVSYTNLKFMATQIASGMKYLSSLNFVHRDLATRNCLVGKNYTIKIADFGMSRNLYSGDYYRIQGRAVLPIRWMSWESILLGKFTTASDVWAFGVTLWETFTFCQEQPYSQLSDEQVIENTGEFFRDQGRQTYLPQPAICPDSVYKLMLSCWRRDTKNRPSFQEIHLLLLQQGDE
Kind of experiment: Inhibition of DDR2 (unknown origin) assessed as residual activity at 100 nM by KINOMEscan analysis relative to control.

In experiment [2] the target is T2, Cyclin-dependent kinase 11A (Homo sapiens) (UniProt Q9UQ88).
T2 sequence (whole entry): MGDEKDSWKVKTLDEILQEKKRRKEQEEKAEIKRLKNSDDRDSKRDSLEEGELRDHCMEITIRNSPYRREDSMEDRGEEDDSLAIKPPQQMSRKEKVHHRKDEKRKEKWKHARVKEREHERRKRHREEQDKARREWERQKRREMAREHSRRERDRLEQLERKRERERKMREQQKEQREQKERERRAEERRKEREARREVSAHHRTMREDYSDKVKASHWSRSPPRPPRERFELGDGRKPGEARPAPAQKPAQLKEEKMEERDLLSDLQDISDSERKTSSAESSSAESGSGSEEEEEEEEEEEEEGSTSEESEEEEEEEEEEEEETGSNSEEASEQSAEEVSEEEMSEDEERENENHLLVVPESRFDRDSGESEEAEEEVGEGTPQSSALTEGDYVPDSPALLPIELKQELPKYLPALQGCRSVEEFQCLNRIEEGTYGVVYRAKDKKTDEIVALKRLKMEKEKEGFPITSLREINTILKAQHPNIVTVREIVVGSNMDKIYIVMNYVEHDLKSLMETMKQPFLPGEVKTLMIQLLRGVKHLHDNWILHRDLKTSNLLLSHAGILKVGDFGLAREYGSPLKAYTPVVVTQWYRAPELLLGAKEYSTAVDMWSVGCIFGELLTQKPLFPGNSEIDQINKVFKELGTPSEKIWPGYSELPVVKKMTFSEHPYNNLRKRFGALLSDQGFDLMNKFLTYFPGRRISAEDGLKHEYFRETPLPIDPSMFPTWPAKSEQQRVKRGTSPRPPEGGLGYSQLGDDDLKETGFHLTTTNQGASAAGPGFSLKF
Kind of experiment: Inhibition of CDC2L2 (unknown origin) assessed as residual activity at 100 nM by KINOMEscan analysis relative to control.

`COc1cc2ncnc(N[C@H](C)c3cccc4ccccc34)c2cc1OC`: the values for the Activity in experiment [1] and in experiment [2] were 67% and 82%, respectively.

The values above are taken from ChEMBL document CHEMBL5678818, “Discovery of potent SOS1 inhibitors that block RAS activation via disruption of the RAS-SOS1 interaction” (Proc Natl Acad Sci U S A, 2019).
